In ChEMBL document CHEMBL1156829 (Proc Natl Acad Sci U S A, 2008):
Where “and” joins values, the source holds several entries; their conditions need not be identical. Equal entries are not always repeated.

How the values were obtained:
[1] = NOVARTIS: Cytotoxicity against human hepatocellular carcinoma cell line (Huh7); assay type: toxicity, cell-based, Huh-7; details: Huh7 cells (hepatocellular carcinoma cell line)
Plasmodium falciparum [2] = assay: NOVARTIS: Inhibition of Plasmodium falciparum 3D7 (drug-susceptible) proliferation in erythrocyte-based infection assay; assay type: functional, organism-based
Plasmodium falciparum [3] = assay: NOVARTIS: Inhibition of Plasmodium falciparum W2 (drug-resistant) proliferation in erythrocyte-based infection assay; assay type: functional, organism-based; details: read-out: EC50

Row | SMILES | CC50 [1] [nM] | EC50 (Plasmodium falciparum [2]; Plasmodium falciparum, 3D7) [nM] | EC50 (Plasmodium falciparum [3]; Plasmodium falciparum, W2) [nM] | EC50 (Plasmodium falciparum [2]) | EC50 (Plasmodium falciparum [3]) [nM]
1 | O=C(C1CCC(Cn2c(=S)[nH]c3ccccc3c2=O)CC1)N1CC=C(c2ccccc2)CC1 (stereo not given) | > 10000 | > 964 | 1200 | – | –
2 | CCOc1ccc(NC(=O)C2c3ccccc3C(=O)N(CC(C)C)C2c2cccs2)cc1 (stereo not given) | > 100000 | 78.3 | 36.7 | – | –
3 | CC(=O)N(C1=C(N2CCOCC2)C(=O)c2ccccc2C1=O)c1ccc(F)cc1 | 173 | 12.9 | 14 | – | –
4 | CCCCNC(=O)C(CC(C)C)N1C(=O)c2cc(NC(C)=O)ccc2NC(=O)[C@@H]1C (stereo not given in full) | > 12800 | 28.2 | 67.2 | – | –
5 | O=c1c(-c2ccc(Cl)cc2Cl)c(C(F)(F)F)oc2c(CN3CCCCC3)c(O)ccc12 | > 100000 | 994 | 198 | – | –
6 | CN(C)c1ccc(C(=C2C=CC(=[N+](C)C)C=C2)c2ccc(N(C)C)cc2)cc1 [GENTIAN VIOLET] | 1430 | 22.1 | 170 | – | –
7 | COc1ccc(-c2n(CC(=O)OC3CC(C)CCC3C(C)C)c3ccccc3[n+]2C)cc1 (stereo not given) | 13400 | 391 | 233 | – | –
8 | COc1cccc(-c2ccc(O)c(CNC3CCN(Cc4ccccc4)CC3)c2)n1 | 5940 | 376 | 163 | – | –
9 | COc1ccc(CN(Cc2ccc(C(C)C)cc2)S(=O)(=O)c2ccc(S(=O)(=O)N3CCN(c4ccccc4F)CC3)cc2)cc1 | > 100000 | > 12500 | 1210 | – | –
10 | Cc1cc(Nc2ccc(Cl)c(Cl)c2)n2nc(C)nc2n1 | > 100000 | 123 | 112 | – | –
11 | CCOc1ccc(Nc2nc(N)c3ccccc3n2)cc1 | 2370 | 862 | 1580 | – | –
12 | O=C1C(Sc2nnc[nH]2)=CC(=NS(=O)(=O)c2cccs2)c2ccccc21 | 6910 | 1530 | 707 | – | –
13 | CCCCCc1ccc(-c2cn3nc(CCCCC)sc3n2)cc1 | > 10000 | > 921 | > 1250 | – | –
14 | Cc1cc(Nc2cccc(C(F)(F)F)c2)nc2ccc(NC(=O)c3cncc(Br)c3)cc12 | > 84400 | 2450 | 3000 | – | –
15 | N#C/C(=C\c1cn(Cc2ccccc2Cl)c2ccccc12)c1nn(CCO)c(N)c1C#N | > 10000 | 500 | 450 | – | –
16 | CCOC(=O)c1ccc(NCc2c(C)[nH]c(C(=O)OCC)c2C)cc1 | > 100000 | 238 | 97.7 | – | –
17 | Cc1ccc(N2C(=O)C3C(C2=O)C2(c4ccccc4)C(=O)C3(c3ccccc3)C(c3ccccc3)=C2c2ccccc2)cc1[N+](=O)[O-] (stereo not given) | > 100000 | 822 | > 12500 | – | –
18 | CC(C)(C)CC(C)(C)Nc1c(-c2ccccc2OC(=O)c2ccccc2Cl)nc2ccccn12 | > 10000 | 822 | 58.8 | – | –
19 | CC[C@@H](C(=O)[C@@H](C)C(O)[C@H](C)CCc1ccc(C)c(O)c1C(=O)O)C1O[C@](CC)(C2CC[C@](O)(CC)[C@H](C)O2)C[C@@H]1C (stereo not given in full) | > 10000 | 541 | 315 | – | –
20 | Cc1ccc(Cl)cc1N1CCN(S(=O)(=O)c2ccc3c(c2)oc(=O)n3C)CC1 | > 100000 | > 12500 | 882 | – | –
21 | COc1cc(Nc2cncc(-c3ccncc3)n2)cc(OC)c1OC | > 100000 | 1080 | 1420 | – | –
22 | COc1cc(NC(C)CCCN(Cc2ccccc2OC)C(=O)c2ccc(C)c([N+](=O)[O-])c2)c2ncccc2c1 (stereo not given) | 4640 | 873 | 555 | – | –
23 | COc1cc(OC)cc(C(=O)Oc2ccccc2-c2nc3cc(C)ccn3c2NC(C)(C)CC(C)(C)C)c1 | > 10000 | 946 | 54 | – | –
24 | Cc1cc(C)cc(NC(=O)CCCn2c3ccccc3c(=O)c3cc(C)ccc32)c1 | > 100000 | 4280 | 3610 | – | –

Row | SMILES | CC50 [1] [nM] | EC50 (Plasmodium falciparum [2]; Plasmodium falciparum, 3D7) [nM] | EC50 (Plasmodium falciparum [3]; Plasmodium falciparum, W2) [nM] | EC50 (Plasmodium falciparum [2]) | EC50 (Plasmodium falciparum [3]) [nM]
25 | CCOc1ccccc1C=NNc1nc(Nc2ccccc2)nc(Nc2ccccc2)n1 | > 10000 | 2050 | > 1250 | – | –
26 | O=C(CSc1nnc2c(n1)[nH]c1ccccc12)Nc1ccc([N+](=O)[O-])cc1 | > 100000 | 9110 | > 12500 | – | –
27 | CC(C)NC(=O)[C@@H]1C[C@@H](NCc2cccnc2)CN1Cc1ccc2ccccc2c1 | > 100000 | > 10900 | 3310 | – | –
28 | COc1ccc(CCNc2nc(NCCCn3ccnc3)ncc2C(=O)NCC(C)C)cc1OC | > 6780 | 563 | > 1250 | – | –
29 | O=C1C(O)=CC(=Nc2ccc(Cc3ccncc3)cc2)c2ccccc21 | > 10000 | 496 | 739 | – | –
30 | COc1cc(OC)cc(-n2nc(C(=O)NC3CCCCC3)c3ccccc3c2=O)c1 | > 10000 | > 1250 | > 1220 | – | –
31 | CCC12C(=O)C(CC)(C(c3ccccc3)=C1c1ccccc1)C1C(=O)N(c3cccc(C(F)(F)F)c3)C(=O)C12 (stereo not given) | > 100000 | 2410 | 401 | – | –
32 | Cc1c(Cl)cccc1NC(=O)CCC(=O)NNC(=O)c1ccccc1 | > 10000 | > 1010 | > 1250 | – | –
33 | CCOc1ccc(Nc2cc(C)nc3c(C)cc(C)cc23)cc1 | 19200 | 484 | 225 | – | –
34 | Fc1ccc(CSc2ccc3nnc(-c4cccnc4)n3n2)cc1 | > 10000 | > 1250 | > 937 | – | –
35 | COc1cc2c(cc1OC)C(=NN=C1NC(C)(C)Cc3ccccc31)NC(C)(C)C2 | > 10000 | 1040 | > 1250 | – | –
36 | CC(c1nc2ccccc2c(=O)n1C)N1CCN(C(=O)C(C)(C)C)CC1 (stereo not given) | > 10000 | 185 | 191 | – | –
37 | CCOC(=O)c1cnc2ccc(OC)cc2c1O | > 100000 | – | 1300 | 727 nM and 245 nM | 721
38 | COc1ccccc1C1CC(c2ccccc2)=NN1C(=O)c1ccccc1 (stereo not given) | 67000 | 262 | 110 | – | –
39 | Cc1ccc(C(=O)C(C)[n+]2ccc(N(C)C)cc2)cc1 (stereo not given) | 35300 | 438 | 4040 | – | –
40 | O=C(COc1cccc(Br)c1)NN=Cc1ccccc1F | > 10000 | > 1250 | > 1190 | – | –
41 | CCc1ccc(-n2c(C(CC)N(CCc3ccc(OC)c(OC)c3)C(=O)C(CC)c3ccccc3)nc3ccccc3c2=O)cc1 (stereo not given) | > 10000 | > 1250 | > 867 | – | –
42 | O=S(=O)(NC1=CC2C(=Nc3ccc(NS(=O)(=O)c4ccc(Br)cc4)cc3N2c2ccccc2)C=C1)c1ccc(Br)cc1 (stereo not given) | > 10000 | 929 | > 1470 | – | –
43 | CC1CCN(CCCNc2ccc(C(=O)Nc3ccc(C(F)(F)F)cc3)cc2[N+](=O)[O-])CC1 | 23400 | 199 | 278 | – | –
44 | CCN1C(=S)NC2c3cc(C)ccc3OC13CCCC23 (stereo not given) | > 100000 | 164 | 111 | – | –
45 | Cc1ccc(C)c(Nc2nc(NCc3ccccc3)c3ccccc3n2)c1 | 14500 | 246 | 90.2 | – | –
46 | Cc1cc(C)nc(/N=C(\N)Nc2ccccc2O)n1 | > 100000 | 379 | 36.2 | – | –
47 | O=S(=O)(NCCCCNc1ccnc2cc(Cl)ccc12)c1cc(Cl)ccc1Cl | > 10700 | 391 | 338 | – | –
48 | Cc1oc2c(c1C(=O)NC1CCS(=O)(=O)C1)C(=O)c1ccccc1C2=O (stereo not given) | 2400 | 437 | 127 | – | –
